Test results from PMC4894417, “Quantitative High-Throughput Profiling of Environmental Chemicals and Drugs that Modulate Farnesoid X Receptor” (Scientific Reports, 2014).
Entries after “also recorded” stand apart in the source; their conditions may differ. Like-named read-outs stand apart in the source and are kept apart here.

Assays:
[1] = target: androgen receptor (AR) (Homo sapiens, UniProt P10275); test: AR-bla reporter gene assay (agonist and antagonist modes)
[2] = target: vitamin D receptor (VDR) (Homo sapiens, UniProt P11473); test: VDR-bla reporter gene assay (agonist and antagonist modes)
Chain of vitamin D receptor (VDR) (P11473 with tags, fused parts or gaps limits assumed): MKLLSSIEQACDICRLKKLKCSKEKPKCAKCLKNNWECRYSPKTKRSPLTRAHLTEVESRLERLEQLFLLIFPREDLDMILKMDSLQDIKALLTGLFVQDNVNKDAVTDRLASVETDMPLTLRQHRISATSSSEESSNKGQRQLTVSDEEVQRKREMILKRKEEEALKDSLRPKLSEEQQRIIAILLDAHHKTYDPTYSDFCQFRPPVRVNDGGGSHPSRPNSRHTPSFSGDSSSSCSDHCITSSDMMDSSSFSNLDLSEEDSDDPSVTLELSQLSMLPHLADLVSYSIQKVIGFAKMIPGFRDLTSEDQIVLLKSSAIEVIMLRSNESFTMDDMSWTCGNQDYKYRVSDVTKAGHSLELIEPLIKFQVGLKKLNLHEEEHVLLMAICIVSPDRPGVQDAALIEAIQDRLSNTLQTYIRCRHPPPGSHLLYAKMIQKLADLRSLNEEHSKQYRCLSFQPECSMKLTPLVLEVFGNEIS

[3] = target: peroxisome proliferator-activated receptor gamma (PPARγ) (Homo sapiens, UniProt P37231); test: PPARγ-bla reporter gene assay (agonist and antagonist modes)
Chain of peroxisome proliferator-activated receptor gamma (PPARγ) (P37231 with tags, fused parts or gaps limits assumed): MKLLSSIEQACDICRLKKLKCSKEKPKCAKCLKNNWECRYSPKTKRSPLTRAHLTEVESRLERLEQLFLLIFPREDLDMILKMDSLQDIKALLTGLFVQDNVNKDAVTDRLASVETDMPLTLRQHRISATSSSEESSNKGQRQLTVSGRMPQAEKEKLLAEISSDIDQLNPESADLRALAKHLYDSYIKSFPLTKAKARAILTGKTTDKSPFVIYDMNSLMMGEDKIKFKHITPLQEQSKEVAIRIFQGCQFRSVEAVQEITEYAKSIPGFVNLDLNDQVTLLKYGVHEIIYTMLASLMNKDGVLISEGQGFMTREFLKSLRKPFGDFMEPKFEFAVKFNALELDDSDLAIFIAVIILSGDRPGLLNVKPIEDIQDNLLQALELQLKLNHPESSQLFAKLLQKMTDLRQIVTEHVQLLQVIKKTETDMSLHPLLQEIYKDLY

[4] = tested on: FXR-UAS-bla HEK293T cells; test: Cell viability assay (CellTiter Glo) in the same well as FXR-bla; conditions: for Cell viability IC50: Table 1, mean ± SD of 3 experiments
[5] = target: T1, FXR-LBD (Homo sapiens, UniProt Q96RI1); test: FXR TR-FRET coactivator recruitment assay, agonist mode; type: biochemical; conditions: Table 1; coactivator SRC2-2 recruitment
T1 construct: The glutathione S-transferase (GST)-tagged FXR-LBD protein; purchased Life Technologies
T1 sequence (Q96RI1 262-486 limits assumed): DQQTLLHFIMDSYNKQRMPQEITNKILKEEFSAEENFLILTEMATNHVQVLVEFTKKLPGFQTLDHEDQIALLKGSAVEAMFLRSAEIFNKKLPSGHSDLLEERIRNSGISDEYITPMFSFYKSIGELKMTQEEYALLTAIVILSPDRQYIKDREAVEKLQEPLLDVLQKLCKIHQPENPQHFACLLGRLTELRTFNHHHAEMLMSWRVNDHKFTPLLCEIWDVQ

[6] = target: T1, FXR-LBD; test: FXR TR-FRET coactivator recruitment assay, antagonist mode (50 μM CDCA); type: biochemical
[7] = target: T2, human FXR (Homo sapiens, UniProt Q96RI1); test: FXR-bla reporter gene assay, agonist mode (qHTS); conditions: for FXR-bla, agonist EC50: Table 1, confirmed compounds, mean ± SD of 3 experiments; for FXR agonist activity: FXR-bla assay
T2 sequence (Q96RI1 with tags, fused parts or gaps limits assumed): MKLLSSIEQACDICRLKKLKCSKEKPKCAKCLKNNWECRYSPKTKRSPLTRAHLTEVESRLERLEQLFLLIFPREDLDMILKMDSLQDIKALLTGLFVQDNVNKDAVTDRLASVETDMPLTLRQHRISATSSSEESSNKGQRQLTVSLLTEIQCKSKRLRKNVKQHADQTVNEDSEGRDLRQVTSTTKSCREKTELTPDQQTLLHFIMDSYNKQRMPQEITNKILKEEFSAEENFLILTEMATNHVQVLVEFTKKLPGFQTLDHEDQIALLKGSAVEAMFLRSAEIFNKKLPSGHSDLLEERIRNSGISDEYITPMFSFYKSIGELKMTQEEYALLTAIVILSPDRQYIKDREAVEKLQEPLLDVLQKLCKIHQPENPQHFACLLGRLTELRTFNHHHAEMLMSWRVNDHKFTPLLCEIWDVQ

[8] = target: estrogen receptor alpha (ERα) (Homo sapiens, UniProt P03372); test: ERα-bla reporter gene assay (agonist and antagonist modes)
Chain of estrogen receptor alpha (ERα) (P03372 with tags, fused parts or gaps limits assumed): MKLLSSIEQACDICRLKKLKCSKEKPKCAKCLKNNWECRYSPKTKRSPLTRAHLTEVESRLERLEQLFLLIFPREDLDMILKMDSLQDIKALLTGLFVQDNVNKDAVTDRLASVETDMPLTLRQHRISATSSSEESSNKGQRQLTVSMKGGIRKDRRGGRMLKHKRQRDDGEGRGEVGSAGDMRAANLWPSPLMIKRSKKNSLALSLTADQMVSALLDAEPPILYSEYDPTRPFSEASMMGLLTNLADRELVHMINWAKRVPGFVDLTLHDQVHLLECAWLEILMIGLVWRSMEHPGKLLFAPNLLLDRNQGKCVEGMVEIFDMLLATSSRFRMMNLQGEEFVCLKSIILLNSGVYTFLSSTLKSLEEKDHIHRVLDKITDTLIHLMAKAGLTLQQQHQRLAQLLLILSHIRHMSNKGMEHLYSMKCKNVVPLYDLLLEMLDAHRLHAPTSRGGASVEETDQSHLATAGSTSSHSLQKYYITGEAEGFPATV

[9] = target: T2, human FXR; test: FXR-bla reporter gene assay, antagonist mode (CDCA-induced transactivation); conditions: for FXR-bla, antagonist Efficacy: Table 1, inhibition as percent of positive control (guggulsterone), 50 μM CDCA
[10] = target: peroxisome proliferator-activated receptor delta (PPARδ) (Homo sapiens, UniProt Q03181); test: PPARδ-bla reporter gene assay (agonist and antagonist modes)
Chain of peroxisome proliferator-activated receptor delta (PPARδ) (Q03181 with tags, fused parts or gaps limits assumed): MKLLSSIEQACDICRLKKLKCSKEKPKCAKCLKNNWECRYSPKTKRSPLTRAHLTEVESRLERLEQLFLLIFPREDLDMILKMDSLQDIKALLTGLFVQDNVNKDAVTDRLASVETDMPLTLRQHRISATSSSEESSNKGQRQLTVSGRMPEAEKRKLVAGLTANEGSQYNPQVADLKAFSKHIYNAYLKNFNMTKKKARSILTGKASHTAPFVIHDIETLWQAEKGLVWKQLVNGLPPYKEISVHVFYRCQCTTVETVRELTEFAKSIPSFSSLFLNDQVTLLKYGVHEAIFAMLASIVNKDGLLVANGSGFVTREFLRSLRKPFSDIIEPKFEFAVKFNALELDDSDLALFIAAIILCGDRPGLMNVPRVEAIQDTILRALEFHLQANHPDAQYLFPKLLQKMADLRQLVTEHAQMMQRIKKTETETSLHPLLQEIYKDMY

[11] = Cell viability assay (CellTiter Glo) in the same well as FXR-bla; conditions: human, FXR-UAS-bla HEK293T cells
[12] = Table S1, primary screening, 50 µM CDCA
[13] = Table S1, primary screening, CDCA 100%
[14] = Table 1, in the presence of 50 μM CDCA

Chain of androgen receptor (AR) (P10275 with tags, fused parts or gaps limits assumed): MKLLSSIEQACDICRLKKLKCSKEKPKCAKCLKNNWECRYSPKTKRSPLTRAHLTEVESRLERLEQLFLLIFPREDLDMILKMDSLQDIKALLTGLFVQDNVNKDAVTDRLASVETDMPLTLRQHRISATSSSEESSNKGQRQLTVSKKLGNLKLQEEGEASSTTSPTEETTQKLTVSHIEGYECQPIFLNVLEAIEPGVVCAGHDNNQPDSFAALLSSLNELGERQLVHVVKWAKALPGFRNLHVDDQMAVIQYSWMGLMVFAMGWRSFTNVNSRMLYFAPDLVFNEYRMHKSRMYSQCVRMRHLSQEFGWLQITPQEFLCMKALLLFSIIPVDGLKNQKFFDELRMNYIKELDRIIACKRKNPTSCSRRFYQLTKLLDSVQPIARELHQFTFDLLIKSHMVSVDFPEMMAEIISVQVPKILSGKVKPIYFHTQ

## COC(=O)Nc1nc2ccccc2[nH]1 [Carbendazole]
[1]
  AR activity: inhibiting β-lactamase expression
[2]
  VDR activity: inhibiting β-lactamase expression
[3]
  PPARγ activity: inhibiting β-lactamase expression
[4]; Table S1, primary screening
  Cytotoxicity IC50: Inactive

## COc1cc2c(c(OC)c1OC)-c1ccc(OC)c(=O)cc1[C@@H](NC(C)=O)CC2 [Colchicine]
[5]
  FXR TR-FRET, agonist EC50: Inactive
[6]
  IC50: 0.03 µM
[7]
  FXR-bla, agonist EC50: Inactive
[1]
  AR activity: inhibiting β-lactamase expression
[8]
  ERα activity: antagonized
[2]
  VDR activity: inhibiting β-lactamase expression
[3]
  PPARγ activity: inhibiting β-lactamase expression
[4]
  Cell viability IC50: Inactive
[9]
  FXR antagonist Efficacy: 55 ± 11%
[9]; FXR-bla assay, CDCA-induced
  FXR antagonist activity: inhibiting β-lactamase expression
[9]; FXR-bla, antagonist IC50
  IC50: 0.03 µM
[9]; IC50, FXR-bla antagonist mode, Figure 4, primary screen
  IC50: 0.011 µM

## COc1cccc2c1C(=O)c1c(O)c3c(c(O)c1C2=O)C[C@@](O)(C(C)=O)C[C@@H]3O[C@H]1C[C@H](N)[C@H](O)[C@H](C)O1 [Daunorubicin]
[2]
  VDR activity: antagonist response
[10]
  PPARδ activity: antagonist response
[3]
  PPARγ activity: antagonist response

## C[C@H]1O[C@@H](O[C@H]2[C@@H](O)C[C@H](O[C@H]3[C@@H](O)C[C@H](O[C@H]4CC[C@@]5(C)[C@H](CC[C@@H]6[C@@H]5C[C@@H](O)[C@]5(C)[C@@H](C7=CC(=O)OC7)CC[C@]65O)C4)O[C@@H]3C)O[C@@H]2C)C[C@H](O)[C@@H]1O [Digoxin]
[7]
  FXR agonist mode EC50: Inactive
[11]
  IC50 at 16 h: 0.02 ± 0.01 µM
[4]; Table S1, primary screening
  Cytotoxicity Efficacy: 35 ± 7%
[9]
  FXR antagonist activity: inconclusive antagonists
  FXR antagonist mode Efficacy: 92 ± 10%
[9]; FXR antagonist mode IC50, Table S1, primary screening, 50 µM CDCA
  IC50: 0.08 ± 0.02 µM

## COc1cccc2c1C(=O)c1c(O)c3c(c(O)c1C2=O)C[C@@](O)(C(=O)CO)C[C@@H]3O[C@H]1C[C@H](N)[C@H](O)[C@H](C)O1 [Doxorubicin]
[8]
  ERα activity: mixed agonist/antagonist response
[2]
  VDR activity: antagonist response
[10]
  PPARδ activity: antagonist response
[3]
  PPARγ activity: antagonist response
[4]
  Cell viability IC50: Inactive

## CCOC(=O)C1=C(C)NC(C)=C(C(=O)OC)C1c1cccc(Cl)c1Cl (centres unmarked) [Felodipine]
[10]
  PPARδ activity: activated

## COC1=CC(=O)C[C@@H](C)[C@]12Oc1c(Cl)c(OC)cc(OC)c1C2=O [Griseofulvin]
[7]; Table S1, primary screening
  FXR agonist mode EC50: Inactive
[8]
  ERα activity: antagonized
[2]
  VDR activity: inhibiting β-lactamase expression
[3]
  PPARγ activity: inhibiting β-lactamase expression
[4]; Table S1, primary screening
  Cytotoxicity IC50: Inactive
[9]
  IC50: 42.3 ± 17.3 µM
[9]; FXR-bla assay, CDCA-induced
  FXR antagonist activity: antagonistic effects; also recorded: inhibiting β-lactamase expression
[9]; [12]
  FXR antagonist mode Efficacy: 42 ± 7%

## C[C@H](CCC(=O)O)[C@H]1CC[C@H]2[C@@H]3CC[C@@H]4C[C@H](O)CC[C@]4(C)[C@H]3CC[C@]12C [LCA, lithocholic acid]
[7]
  FXR agonist activity: selectively induced transactivation of FXR
[7]; [13]
  FXR agonist mode Efficacy: 20 ± 7%
[11]
  IC50 at 16 h: 43.8 ± 4.18 µM
[4]; Table S1, primary screening
  Cytotoxicity Efficacy: 65 ± 22%
[9]; [12]
  FXR antagonist mode Efficacy: 75 ± 40%

## COC(=O)C1=C(C)NC(COC(N)=O)=C(C(=O)OC(C)C)C1c1cccc(Cl)c1Cl (centres unmarked) [Lemildipine]
[1]
  AR activity: activated
[8]
  ERα activity: activated
[10]
  PPARδ activity: activated

## COC(=O)C1=C(C)NC(C)=C(C(=O)OCCN2CCN(C(c3ccccc3)c3ccccc3)CC2)C1c1cccc([N+](=O)[O-])c1 (centres unmarked) [Manidipine]
[7]
  EC50: 6.92 ± 4 µM
  FXR agonist activity: weak FXR agonist activity
[7]; [13]
  FXR agonist mode Efficacy: 13 ± 1%
[11]
  IC50 at 16 h: 18.2 ± 15.1 µM
[4]; Table S1, primary screening
  Cytotoxicity Efficacy: 49 ± 17%
[9]
  IC50: 19.2 ± 10.4 µM
[9]; [12]
  FXR antagonist mode Efficacy: 57 ± 35%

## COC(=O)Nc1nc2ccc(C(=O)c3ccccc3)cc2[nH]1 [Mebendazole]
[5]
  FXR TR-FRET, agonist EC50: Inactive
[6]; [14]
  FXR TR-FRET, antagonist IC50: Inactive
[7]
  FXR-bla, agonist EC50: Inactive
[1]
  AR activity: inhibiting β-lactamase expression
[2]
  VDR activity: inhibiting β-lactamase expression
[3]
  PPARγ activity: inhibiting β-lactamase expression
[4]
  Cell viability IC50: Inactive
[9]
  IC50: 2.19 ± 1.51 µM
  FXR-bla, antagonist Efficacy: 70 ± 9%
[9]; FXR-bla assay, CDCA-induced
  FXR antagonist activity: inhibiting β-lactamase expression
[9]; Table S3, 50 µM CDCA
  FXR antagonist Efficacy: 66 ± 12%

## COC(=O)C1=C(C)NC(C)=C(C(=O)OCCN(C)Cc2ccccc2)C1c1cccc([N+](=O)[O-])c1 (centres unmarked) [Nicardipine]
[7]
  EC50: 3.64 ± 0.84 µM
  FXR agonist activity: weak FXR agonist activity
[7]; [13]
  FXR agonist mode Efficacy: 33 ± 7%
[7]; Table S3
  FXR agonist Efficacy: 33 ± 7%
[11]
  EC50 at 16 h: 31.9 ± 15.8 µM
  IC50 at 16 h: 31.9 ± 15.8 µM
[4]; Table S1, primary screening
  Cytotoxicity Efficacy: 125 ± 27%
[4]; Table S3
  Cytotoxicity Efficacy: 125 ± 27%
[9]
  IC50: 16.7 ± 5.67 µM
[9]; [12]
  FXR antagonist mode Efficacy: 116 ± 10%
[9]; Table S3, 50 µM CDCA
  FXR antagonist Efficacy: 116 ± 10%

## COc1cccc2c1C(=O)c1c(O)c3c(c(O)c1C2=O)C[C@@](O)(C(=O)CO)C[C@@H]3O[C@H]1C[C@H](N)[C@H](O[C@@H]2CCCCO2)[C@H](C)O1 [Pirarubicin]
[7]
  EC50: 16.9 ± 11 µM
  FXR agonist mode Efficacy: 20 ± 9%
[1]
  AR activity: mixed agonist/antagonist response
[8]
  ERα activity: mixed agonist/antagonist response
[2]
  VDR activity: antagonist response
[10]
  PPARδ activity: antagonist response
[3]
  PPARγ activity: antagonist response
[4]; Table S1, primary screening
  Cytotoxicity IC50: Inactive
[9]
  FXR antagonist mode Efficacy: 60 ± 23%
[9]; FXR antagonist mode IC50
  IC50: 21.3 ± 15.6 µM

## COc1cc([C@@H]2c3cc4c(cc3[C@H](O)[C@H]3COC(=O)[C@H]23)OCO4)cc(OC)c1OC [Podofilox]
[1]
  AR activity: inhibiting β-lactamase expression
[2]
  VDR activity: inhibiting β-lactamase expression
[3]
  PPARγ activity: inhibiting β-lactamase expression

## CCc1c(C(=O)NN2CCCCC2)nn(-c2ccc(Cl)cc2Cl)c1-c1ccc(Br)cc1 [Surinabant]
[5]
  FXR TR-FRET, agonist EC50: Inactive
[6]; [14]
  FXR TR-FRET, antagonist Efficacy: 73 ± 1%
[7]
  FXR-bla, agonist EC50: Inactive
[11]
  EC50 at 16 h: 34.1 ± 13.5 µM
[4]; Homo sapiens, HEK-293T, read-out: Cell viability IC50
  IC50: 17.1 ± 1.12 µM
[4]; Table S3
  Cytotoxicity Efficacy: 66 ± 17%
[9]
  IC50: 1.84 ± 0.77 µM
  FXR-bla, antagonist Efficacy: 86 ± 25%
[9]; Table S3, 50 µM CDCA
  FXR antagonist Efficacy: 96 ± 16%
